Measured values reported in US20240408216A1, “PROTEIN INHIBITOR OR DEGRADING AGENT, PHARMACEUTICAL COMPOSITION CONTAINING SAME AND PHARMACEUTICAL USE” (JING MEDICINE TECHNOLOGY (SHANGHAI) LTD., priority 2021, published 2024).

What was measured:
[1] = system: BaF3 (EGFR Del19/T790M/C797S); experiment: Cell proliferation IC50 assay (Cell Titer GLO), BaF3 DTC cells; format: cell-based; conditions: Mus musculus, Ba/F3 EGFR-Del19/T790M/C797S, Table 6, 72 h
Experimental: IC50 of compounds in the present invention was determined by Cell Titer GLO reagent from Promega. The procedures are as follows:
Tumor cells were cultured in specified medium in an incubator at 37° C. and 5% CO2. The cells were passaged periodically. Cells at the logarithmic growth phase were collected for plating at a density of 2000-4000 cells/well. The next day, the compounds of the present invention were serially diluted and added to the cells, with DMSO being the negative control and the culture media without cells being the blank control. The plate was incubated in the incubator for 72 h. The cell viability assay was performed by adding the detection reagents to the cell culture media according to Cell Titer GLO reagent instructions and detecting luminescent signals on an EnVision microplate reader (PerkinElmer).
Inhibition of cell growth by the compounds of the present invention was plotted by Prism Graphpad software for statistically calculating the IC50 of the compound of the present invention.

[2] = system: BaF3 (EGFR L858R/T790M/C797S); experiment: Cell proliferation IC50 assay (Cell Titer GLO), BaF3 LTC cells; format: cell-based; conditions: Mus musculus, Ba/F3 EGFR, Table 6, 72 h
Method in brief: (§1)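 Each cell line, plated at 2000-4000 cells/well, received serially diluted compound for 72 h (37° C, 5% CO2) before luminescent ATP-based viability detection. IC50 values were derived from growth inhibition relative to DMSO-treated and cell-free blank wells.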

BaF3 (EGFR Del19/C797S) = target: T1, BaF3 (EGFR Del19/C797S) (Homo sapiens, UniProt P00533, C797S, cells depend on it, form not given); experiment: Cell proliferation IC50 assay (Cell Titer GLO), BaF3 DC cells; format: cell-based, mouse; conditions: Table 6, 72 h
T1 construct: BaF3 (EGFR Del19/C797S)|DC|RPMI1640 + 10% FBS
Method in brief: as §1

BaF3 (EGFR WT) = experiment: Cell proliferation IC50 assay (Cell Titer GLO), BaF3 WT cells; format: cell-based; conditions: Mus musculus, Ba/F3 EGFR, Table 6, 10 ng/ml EGF, 72 h
Method in brief: as §1

A431 = experiment: Cell proliferation IC50 assay (Cell Titer GLO), A431 cells; format: cell-based; conditions: Homo sapiens, A-431; Table 6; A431, 72 h; read-out: A431 IC50
Method in brief: as §1

T1 sequence (P00533 with tags, fused parts or gaps DEL746-750/C797S, form open): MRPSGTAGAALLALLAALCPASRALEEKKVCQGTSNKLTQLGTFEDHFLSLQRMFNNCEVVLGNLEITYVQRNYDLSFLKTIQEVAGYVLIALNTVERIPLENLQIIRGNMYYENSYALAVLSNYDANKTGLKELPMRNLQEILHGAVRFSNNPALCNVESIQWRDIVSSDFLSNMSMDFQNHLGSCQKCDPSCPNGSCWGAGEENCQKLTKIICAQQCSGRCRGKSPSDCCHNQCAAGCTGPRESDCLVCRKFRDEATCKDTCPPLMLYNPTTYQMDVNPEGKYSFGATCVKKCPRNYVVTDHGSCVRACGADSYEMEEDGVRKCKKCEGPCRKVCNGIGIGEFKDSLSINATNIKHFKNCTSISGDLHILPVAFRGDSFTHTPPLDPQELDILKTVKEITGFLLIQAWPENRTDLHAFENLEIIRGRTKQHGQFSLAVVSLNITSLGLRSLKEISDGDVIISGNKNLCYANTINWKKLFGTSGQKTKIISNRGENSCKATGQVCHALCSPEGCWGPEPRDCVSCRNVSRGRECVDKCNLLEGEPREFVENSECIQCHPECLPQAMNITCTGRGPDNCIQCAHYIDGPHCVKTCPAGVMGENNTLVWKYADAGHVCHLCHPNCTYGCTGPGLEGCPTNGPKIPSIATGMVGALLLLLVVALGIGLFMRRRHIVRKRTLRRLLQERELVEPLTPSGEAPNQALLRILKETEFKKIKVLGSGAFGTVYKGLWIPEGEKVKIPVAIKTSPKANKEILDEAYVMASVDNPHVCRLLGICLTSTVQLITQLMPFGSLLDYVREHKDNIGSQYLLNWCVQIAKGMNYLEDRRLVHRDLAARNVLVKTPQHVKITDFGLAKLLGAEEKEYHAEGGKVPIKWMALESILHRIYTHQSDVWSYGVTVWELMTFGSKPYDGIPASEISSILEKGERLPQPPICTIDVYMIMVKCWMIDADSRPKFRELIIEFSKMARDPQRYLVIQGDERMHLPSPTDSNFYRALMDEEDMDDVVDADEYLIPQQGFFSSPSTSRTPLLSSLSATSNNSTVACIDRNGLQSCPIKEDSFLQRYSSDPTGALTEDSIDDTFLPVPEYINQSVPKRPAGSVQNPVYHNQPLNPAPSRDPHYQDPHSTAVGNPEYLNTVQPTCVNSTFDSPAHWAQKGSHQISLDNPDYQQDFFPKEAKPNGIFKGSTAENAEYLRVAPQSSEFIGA

IC50 [1] [nM] | IC50 [2] [nM] | IC50 (BaF3 (EGFR Del19/C797S)) [nM] | IC50 (BaF3 (EGFR WT)) [nM] | IC50 (A431) [nM] | Compound
72.5 | 456 | 22.1 | > 4000 | > 4000 | CCc1cc(Nc2ncc(Cl)c(Nc3ccccc3P(C)(C)=O)n2)c(OC)cc1N1CCC(N2CCN(C3(CC#Cc4cccc5c4CN(C4CCC(=O)NC4=O)C5=O)CC3)CC2)CC1 (centres unmarked) [Example E57]
280 | 621 | 37.8 | > 4000 | > 4000 | COc1cc(N2CCC(N3CCN(CCC#Cc4cccc5c4CN(C4CCC(=O)NC4=O)C5=O)CC3)CC2)c(C(N)=O)cc1Nc1ncc(Cl)c(Nc2ccccc2P(C)(C)=O)n1 (centres unmarked) [Example E61]
7.31 | 49.3 | 2.6 | 659 | 1150 | CCc1cc(Nc2ncc(Cl)c(Nc3ccc(C)c(C)c3P(C)(C)=O)n2)c(OC)cc1N1CCC(N2CCN(CCCCOc3cccc4c3CN(C3CCC(=O)NC3=O)C4=O)CC2)CC1 (centres unmarked) [Example E63]
35.3 | 267 | 15.8 | 1730 | 1060 | CCc1cc(Nc2ncc(Cl)c(Nc3ccccc3P(C)(C)=O)n2)c(OC)cc1N1CCC(N2CCN(CCCCCc3ccc4c(N5CCC(=O)NC5=O)nn(C)c4c3)CC2)CC1 [Example E65]
4.09 | 20.6 | 4.4 | 306 | 2490 | CCc1cc(Nc2ncc(Cl)c(Nc3ccccc3P(C)(C)=O)n2)c(OC)cc1N1CCC(N2CCN([C@H]3C[C@@H](Oc4cc5c(cc4F)C(=O)N(C4CCC(=O)NC4=O)C5)C3)CC2)CC1 (some centres unmarked) [Example E67]
15.3 | 114 | 0.7 | 168 | 344 | CCc1cc(Nc2ncc(-c3cnn(C)c3)c(Nc3ccccc3P(C)(C)=O)n2)c(OC)cc1N1CCC(N2CCN([C@H]3C[C@@H](Oc4cccc5c4CN(C4CCC(=O)NC4=O)C5=O)C3)CC2)CC1 (some centres unmarked) [Example E69]
26.3 | 64.2 | 20.2 | 80.3 | > 4000 | COc1cc(N2CCC(N3CCc4cc(Oc5cccc6c5CN(C5CCC(=O)NC5=O)C6=O)ccc4C3)CC2)c(C2CC2)cc1Nc1ncc(Cl)c(Nc2ccccc2P(C)(C)=O)n1 (centres unmarked) [Example E75]
16.3 | 44.6 | 13.5 | 67.6 | 651 | CCc1cc(Nc2ncc(Cl)c(Nc3ccccc3P(C)(C)=O)n2)cc(Cl)c1N1CCC(N2CCN(CCC#Cc3cccc4c3CN(C3CCC(=O)NC3=O)C4=O)CC2)CC1 (centres unmarked) [Example E77]
40.7 | 197 | 33 | 212 | 1670 | COc1cc2c(cc1Nc1ncc(Cl)c(Nc3ccccc3P(C)(C)=O)n1)CCN(C1CCN(CCCCOc3cccc4c3CN(C3CCC(=O)NC3=O)C4=O)CC1)C2 (centres unmarked) [Example E86]
11.5 | 51.8 | 5.3 | > 4000 | 3800 | CCc1cc(Nc2ncc(Cl)c(Nc3ccccc3P(C)(C)=O)n2)c(OC)cc1N1CCC(N2CCN(CCCCOc3cccc4c3CN(C3CCC(=O)NC3=O)C4=O)C(=O)C2)CC1 (centres unmarked) [Example E87]
89.5 | 1040 | 79.9 | 1150 | 3650 | CCc1cc(Nc2ncc(Cl)c(Nc3ccccc3P(C)(C)=O)n2)c(OC)cc1N1CCC2(CCN(CCCCOc3ccc(NC4CCC(=O)NC4=O)cc3)CC2)CC1 (centres unmarked) [Example E89]
18.5 | 115 | 5.2 | 305 | 1430 | COc1cc(N2CCC(N3CCN(CCC#Cc4cccc5c4CN(C4CCC(=O)NC4=O)C5=O)CC3)CC2)c(CO)cc1Nc1ncc(Cl)c(Nc2ccccc2P(C)(C)=O)n1 (centres unmarked) [Example E91]
9.74 | 68.6 | 15 | 75.4 | 827 | CCc1cc(Nc2ncc(Cl)c(Nc3ccccc3P(C)(C)=O)n2)cc(OC)c1N1CCC(N2CCN(CCC#Cc3cccc4c3CN(C3CCC(=O)NC3=O)C4=O)CC2)CC1 (centres unmarked) [Example E93]
45.6 | 173 | 20.6 | 1060 | 1070 | CCc1cc(Nc2ncc(Cl)c(Nc3ccccc3P(C)(C)=O)n2)c(OC)cc1N1CCC(N2CCN(CCCC#Cc3ccc4c(N5CCC(=O)NC5=O)nn(C)c4c3)CC2)CC1 [Example E97]
15.5 | 45.2 | 5 | 566 | 1170 | COc1cc(C2CCN(C3CCN(CCCCOc4cccc5c4CN(C4CCC(=O)NC4=O)C5=O)CC3)CC2)c(OC)cc1Nc1ncc(Cl)c(Nc2ccccc2P(C)(C)=O)n1 (centres unmarked) [Example E98]
5.54 | 21.8 | 4.6 | 639 | 1010 | COc1cc(N2CCC(N3CCN(CCCCOc4cccc5c4CN(C4CCC(=O)NC4=O)C5=O)CC3)CC2)c(C#N)cc1Nc1ncc(Cl)c(Nc2ccccc2P(C)(C)=O)n1 (centres unmarked) [Example E103]
10.5 | 76.7 | 3.2 | 1750 | 3550 | CCc1cc(Nc2ncc(Cl)c(Nc3ccccc3P(C)(C)=O)n2)c(OC)cc1N1CCC(N2CCN(CCOc3cccc4c3CN(C3CCC(=O)NC3=O)C4=O)C(C)(C)C2)CC1 (centres unmarked) [Example E108]
10.5 | 83.3 | 6.5 | > 4000 | 1140 | CCc1cc(Nc2ncc(Cl)c(Nc3ccccc3P(C)(C)=O)n2)c(OC)cc1N1CCC(N2CCN(CCOCCc3cccc4c3CN(C3CCC(=O)NC3=O)C4=O)CC2)CC1 (centres unmarked) [Example E109]
18.4 | 85.4 | 10.7 | > 4000 | 1370 | CCc1cc(Nc2ncc(Cl)c(Nc3ccccc3P(C)(C)=O)n2)c(OC)cc1N1CCC(N2CCN(C(=O)CNc3cccc4c3C(=O)N(C3CCC(=O)NC3=O)C4=O)CC2)CC1 (centres unmarked) [Example E112]
5.19 | 24.4 | 1.4 | 779 | 1160 | CCc1cc(Nc2ncc(Cl)c(Nc3ccccc3P(C)(C)=O)n2)c(OC)nc1N1CCC(N2CCN(CCCCOc3cccc4c3CN(C3CCC(=O)NC3=O)C4=O)CC2)CC1 (centres unmarked) [Example E115]
7.32 | 56.3 | 4.3 | > 4000 | 1220 | CCc1cc(Nc2ncc(Cl)c(Nc3ccccc3P(C)(C)=O)n2)c(OC)cc1N1CCC(N(C)CCCCOc2cccc3c2CN(C2CCC(=O)NC2=O)C3=O)CC1 (centres unmarked) [Example E116]
6.8 | 106 | 106 | 3970 | 1270 | CCc1cc(Nc2ncc(Cl)c(Nc3ccc(F)cc3P(C)(C)=O)n2)c(OC)cc1N1CCC(N2CCN(CCOc3cccc4c3CN(C3CCC(=O)NC3=O)C4=O)CC2)CC1 (centres unmarked) [Example E124]
20.3 | 104 | 18.4 | > 4000 | > 4000 | COCc1cc(Nc2ncc(Cl)c(Nc3ccccc3P(C)(C)=O)n2)c(OC)cc1N1CCC(N2CCN(CCCCOc3cccc4c3CN(C3CCC(=O)NC3=O)C4=O)CC2)CC1 (centres unmarked) [Example E125]
18.9 | 72.3 | 44 | > 4000 | > 4000 | CCc1cc(Nc2nc(Nc3ccccc3P(C)(C)=O)c3cc[nH]c3n2)c(OC)cc1N1CCC(N2CCN(CCOc3cccc4c3CN(C3CCC(=O)NC3=O)C4=O)CC2)CC1 (centres unmarked) [Example E126]
6.13 | 47.7 | 3.3 | 889 | 1330 | CCc1cc(Nc2ncc(Cl)c(Nc3ccccc3P(C)(C)=O)n2)c(OC)cc1N1CCC(N2C[C@@H](C)N(CCCCOc3cccc4c3CN(C3CCC(=O)NC3=O)C4=O)[C@@H](C)C2)CC1 (some centres unmarked) [Example E129]
11.5 | 76.3 | 6.6 | 1080 | 1270 | CCc1cc(Nc2ncc(Cl)c(Nc3ccccc3P(C)(C)=O)n2)c(OC)cc1N1CCC(N2C[C@@H]3C[C@H]2CN3CCOc2cccc3c2CN(C2CCC(=O)NC2=O)C3=O)CC1 (some centres unmarked) [Example E137]
7.97 | 54.6 | 8.1 | > 4000 | > 4000 | CCc1cc(Nc2nc(Nc3ccccc3P(C)(C)=O)c3cc[nH]c3n2)c(C)cc1N1CCC(N2CCN(CCCCOc3cccc4c3CN(C3CCC(=O)NC3=O)C4=O)CC2)CC1 (centres unmarked) [Example E140]
15.7 | 55.8 | 5.6 | 188 | 908 | COc1cc(N2CCC(N3CCN(CCCCOc4cccc5c4CN(C4CCC(=O)NC4=O)C5=O)CC3)CC2)c(-c2cnn(C)c2)cc1Nc1ncc(Cl)c(Nc2ccccc2P(C)(C)=O)n1 (centres unmarked) [Example E146]
